Results published in US8048924B2, “Methods and compositions employing 4-aminophenylacetic acid compounds” (Biocon Limited, priority 2001, dated 2011).
Read-outs that look alike come from different tables or passages of the source.

Experiments:
[1] = Single oral dose pharmacokinetics of APAZA in dogs; type: in vivo, Beagle dogs; settings: for AUC(0-t) / Cmax / Tmax: Beagle, dog, plasma, single oral dose 1000 mg/kg; for AUC(0-t): read-out: area under the plasma concentration-time curve (AUC0-t); for Cmax: read-out: mean maximum plasma concentration (Cmax); for Tmax: read-out: time to maximum plasma concentration (tmax)
DNBS colitis = assay: Study AA-PH-003: oral and rectal APAZA and sulfasalazine in DNBS colitis; type: in vivo, male Lewis rats; parameters: Average Diarrhea Score Day 3: scale not given here; settings: for Colonic Inflammation Scores: scale 0-2
Method: Study AA-PH-003 was designed to evaluate the anti-inflammatory efficacy of oral and rectal doses of APAZATM and sulfasalazine in the DNBS colitis model in rats. […] Thirty-five adult male Lewis rats (body weight 200-250 g) were studied. […] Animal body weights and incidence of diarrhea were recorded daily. […] Animals in the DNBS groups and the parallel deionized water group were sacrificed on day 5. Laparotomies and colectomies were performed and animals were scored for the presence and severity of intestinal adhesions, strictures, inflammation, and ulceration. Colon: body weight ratios were determined and colon histopathology was performed.

DSS induced colitis = assay: Dextran sulfate sodium (DSS) colitis in the rat; type: in vivo, Sprague-Dawley rats; settings: oral gavage bid
Method: The effectiveness of APAZA™ and sulfasalazine in ameliorating intestinal inflammation in a model of dextran sulfate sodium (DSS) induced colitis in Sprague-Dawley rats was determined. Thirty-six male Sprague-Dawley rats that were 7-8 weeks old and weighed 240-260 g were studied. […] After completion of the treatment period, rats were euthanized and the efficacy of the test drugs in inhibiting colitis was assessed by the following: • Disease Activity Index Scoring: • Body weight • Colon wet weight: body weight ratios • Colonic Myeloperoxidase (MPO) activity • Histopathological changes of the colon

[2] = Metabolism of APAZA and sulfasalazine following oral delivery to rats (urine and feces, HPLC); settings: rat
Method: The degradation of the APAZA™ therapeutic agent (5-(4-carboxymethyl-phenylazo)-2-hydroxy-benzoic acid), and sulfasalazine (used as a control) and the generation of their metabolites when these compounds were orally dosed to rats were measured to be able to confirm that both the APAZA™ therapeutic agent and sulfasalazine undergo bacterial azo reduction and yield their metabolites, 5-aniinosalicylic acid (5-ASA) and sulfapyridine for sulfasalazine, 5-aminosalicylic acid (5-ASA) and 4-aminophenyl acetic acid (4-APAA) for the APAZA™ therapeutic agent.
This experiment was performed to confirm that an azo compound, the APAZA™ therapeutic agent, undergoes a bacterial reduction process and yields its metabolites in in-vivo metabolism. The quantification of its metabolites was also carried out. Sulfasalazine, not part of the present invention, was used as a control since similar azo bond cleavage by bacteria occurs with it, which results in 5-aminosalicylic acid and sulfapyridine as its metabolites. Both the APAZA™ therapeutic agent and sulfasalzine were degraded and their metabolites were produced as expected.
A total of 8 rats were used for the experiment and methylcellulose was used as a vehicle. The dosage amount was 100 mg/kg per rat. […] Both urine and feces were collected over 4 days and analyzed by HPLC. […]

[3] = orally + 30 mg DNBS, APAZA 200 mg/kg, sulfasalazine 265.6 mg/kg
[4] = rectally + 30 mg DNBS, APAZA 200 mg/kg, sulfasalazine 265.6 mg/kg

Question: For `O=C(O)Cc1ccc(/N=N/c2ccc(O)c(C(=O)O)c2)cc1` [APAZA™, 5-(4-carboxymethyl-phenylazo)-2-hydroxy-benzoic acid], which AUC(0-t) ([1]; female dogs) is on record?
Answer: The AUC(0-t) was 40800 ng·h/mL.

Question: What about the Cmax ([1]; female dogs) of the same compound?
Answer: The Cmax was 2640 ng/mL.

Question: What about the Tmax ([1]; female dogs) of the same compound?
Answer: The Tmax was 24 h.

Question: And the AUC(0-t) ([1]; male dogs)?
Answer: The AUC(0-t) was 95400 ng·h/mL.

Question: What about the Cmax ([1]; male dogs) of the same compound?
Answer: Its Cmax is 9780 ng/mL.

Question: And the Tmax ([1]; male dogs)?
Answer: The Tmax was 15 h.

Question: What about the “plasma levels versus dose” value ([1]; single oral dose, 100 to 1000 mg/kg) of the same compound?
Answer: Its value is “increased in a dose-related manner”.

Question: What about the “severity of mucosal ulcers” value (DNBS colitis; compared to tissues from placebo and sulfasalazine treated animals) of the same compound?
Answer: Its value is “less severe”.

Question: What about the “reduction relative to control in net colon: body weight (% BW) ratio” value (DNBS colitis; oral groups) of the same compound?
Answer: The value was 23.8%.

Question: What about the “Average Diarrhea Score Day 3” value (DNBS colitis; [3]) of the same compound?
Answer: Its value is 2.

Question: What about the “Colon Histopathology (# severe lesions)” value (DNBS colitis; [3]) of the same compound?
Answer: The value was 2.

Question: And the “Length of Colonic Inflammation (cm)” value (DNBS colitis; [3])?
Answer: The value was 2.5 cm.

Question: What about the “Mean Body Weight” value (DNBS colitis; [3]) of the same compound?
Answer: The value was 213.8 g.

Question: And the “Mean Colon Length (cm)” value (DNBS colitis; [3])?
Answer: The value was 12.3 cm.

Question: What about the “Net Colon: Body Weight Ratio” value (DNBS colitis; [3]) of the same compound?
Answer: The value was 0.2309.

Question: And the “Colonic Inflammation Scores” value (DNBS colitis; [3])?
Answer: Its value is 1.4.

Question: What about the “Average Diarrhea Score Day 3” value (DNBS colitis; [4]) of the same compound?
Answer: Its value is 2.

Question: And the “Length of Colonic Inflammation (cm)” value (DNBS colitis; [4])?
Answer: Its value is 1.6 cm.

Question: What about the “Mean Body Weight” value (DNBS colitis; [4]) of the same compound?
Answer: The value was 218.6 g.

Question: What about the “Mean Colon Length (cm)” value (DNBS colitis; [4]) of the same compound?
Answer: The value was 12.4 cm.

Question: What about the “Net Colon: Body Weight Ratio” value (DNBS colitis; [4]) of the same compound?
Answer: Its value is 0.1983.

Question: What about the “Colonic Inflammation Scores” value (DNBS colitis; [4]) of the same compound?
Answer: Its value is 1.3.

Question: And the “colon wet weight: body weight ratio, DSS versus DW” value (DSS induced colitis; APAZA 100 mg/kg, sulfasalazine 133 mg/kg)?
Answer: Its value is “no statistically significant difference”.

Question: And the “Disease Activity Index (DAI) score” value (DSS induced colitis; rats drinking 5% DSS, APAZA 100 mg/kg, sulfasalazine 133 mg/kg)?
Answer: The value was 0-1.

Question: And the “colonic MPO activity” value (DSS induced colitis; rats receiving DSS)?
Answer: Its value is “similar”.

Question: What about the “histological changes of the colon” value (DSS induced colitis; rats receiving DSS) of the same compound?
Answer: The value was “largely protected”.

Question: With `Nc1ccc(O)c(C(=O)O)c1` [5-ASA, 5-amino-2-hydroxy-benzoic acid, reference compound] as the compound, how does the “conversion of 5-ASA in vivo” value [2] read?
Answer: Its value is “quickly converted to acetylated 5-ASA”.
